Reference: patent US9988366B2, “Pesticidally active heterocyclic derivatives with sulphur containing substituents” (Syngenta Participations AG, priority 2014, dated 2018)

Legend:
Format in all cases: in vivo
[1] = tested on: Plutella xylostella (diamond back moth); assay: Example B3: Plutella xylostella larvicide, feeding/residual contact activity, preventive (artificial diet); settings: 120 h, L2 larvae on artificial diet, 5 days, read-out: activity (larval mortality, antifeedant and growth regulation)
Procedure: Example B3: Activity Against Plutella xylostella (Diamond Back Moth)
(§1) (Larvicide, Feeding/Residual Contact Activity, Preventive)
24-well microtiter plate (MTP) with artificial diet was treated with test solutions by pipetting. After drying, the MTPs were infested with L2 larvae (10-15 per well). After an incubation period of 5 days, samples were checked for larval mortality, antifeedant and growth regulation.

[2] = tested on: Diabrotica balteata (corn root worm); assay: Example B4: Diabrotica balteata larvae L2 on maize sprouts, feeding/contact, preventative; settings: 120 h, 5 days, read-out: activity (larval mortality and growth regulation)
Procedure: Example B4: Activity Against Diabrotica balteata (Corn Root Worm)
(Larvae L2 on Maize Sprouts, Feeding/Contact, Preventative)
Maize sprouts, placed on an agar layer in 24 well micro titer plates were treated with test solutions by spraying. After drying, the MTPs were infested with L2 larvae (6-10 per well). After an incubation period of 5 days, samples were checked for larval mortality and growth regulation.

[3] = tested on: Spodoptera littoralis (Egyptian cotton leaf worm); assay: Example B1: Spodoptera littoralis larvicide, feeding/residual contact activity, preventive (cotton leaf discs); settings: foliar, 72 h, L1 larvae on sprayed cotton leaf discs, 3 days after treatment, read-out: effect in at least one of the three categories (mortality, anti-feedancy, or growth inhibition)
Description: Example B1: Activity Against Spodoptera littoralis (Egyptian Cotton Leaf Worm)
as §1
Cotton leaf discs were placed on agar in a 24-well microtiter plate and sprayed with test solutions. After drying, the leaf discs were infested with five L1 larvae. The samples were checked for mortality, repellent effect, feeding behaviour, and growth regulation 3 days after treatment (DAT). Control of Spodoptera littoralis by a test sample is when at least one of mortality, anti-feedant effect, and growth inhibition is higher than an untreated sample.

[4] = tested on: Bemisia tabaci (cotton white fly); assay: Example B7: Bemisia tabaci adulticide contact activity, preventative (cotton leaf discs); settings: foliar, 168 h, adult white flies on cotton leaf discs, 7 DAT
Procedure: Example B7: Activity Against Bemisia tabaci (Cotton White Fly)
(Adulticide Contact Activity, Preventative), Adult
Cotton leaf discs were placed on agar in a 24-well microtiter plate and sprayed with test solutions. After drying, the leaf discs were infested with adult white flies. After an incubation period of 7 DAT, samples were checked for mortality and special effects (e.g. phytotoxicity).

[5] = tested on: Euschistus heros (neotropical brown stink bug); assay: Example B8: Euschistus heros, soybean leaf spray test; settings: 120 h, N-2 nymphs on soybean leaf, 5 days after infestation
Procedure: Example B8: Activity Against Euschistus heros (Neotropical Brown Stink Bug)
(§2) Soybean leaf on agar in 24-well microtiter plates were sprayed with aqueous test solutions prepared from 10,000 ppm DMSO stock solutions. After drying the leaf were infested with N-2 nymphs. The samples were assessed for mortality 5 days after infestation.

[6] = tested on: Myzus persicae (green peach aphid); assay: Example B5: Myzus persicae feeding/residual contact activity, preventive, mixed population (sunflower leaf discs); settings: foliar, 144 h, mixed population on sunflower leaf discs, 6 DAT
Procedure: Example B5: Activity Against Myzus persicae (Green Peach Aphid)
(Feeding/Residual Contact Activity, Preventive), Mixed Population
Sunflower leaf discs were placed on agar in a 24-well microtiter plate and sprayed with test solutions. After drying, the leaf discs were infested with an aphid population of mixed ages. After an incubation period of 6 DAT, samples were checked for mortality and special effects (e.g. phytotoxicity).

[7] = tested on: Spodoptera littoralis (Egyptian cotton leaf worm); assay: Example B2: Spodoptera littoralis systemic activity (lettuce on agar); settings: 120 h, systemic via lettuce roots, 5 days after infestation, read-out: effect in at least one of the three categories (mortality, anti-feedancy, or growth inhibition)
Description: Example B2: Activity Against Spodoptera littoralis (Egyptian Cotton Leaf Worm)
Test compounds were applied by pipette into 24 well plates and mixed with agar. Lettuce seeds were placed on the agar and the multi well plate is closed by another plate which contains also agar. After 7 days the roots have absorbed the compound and the lettuce has grown into the lid plate. The lettuce leaves were now cut off into the lid plate. Spodoptera eggs were pipetted through a plastic stencil on a humid gel blotting paper and the plate closed with it. The samples are checked for mortality, repellent effect, feeding behavior, and growth regulation 5 days after infestation.

[8] = tested on: Myzus persicae (green peach aphid); assay: Example B9: Myzus persicae systemic/feeding activity, curative, mixed population (pea seedling roots); settings: 144 h, pea seedling roots in test solution, 6 days after introduction
Description: Example B9: Activity Against Myzus persicae (Green Peach Aphid)
(Systemic/Feeding Activity, Curative), Mixed Population
Roots of pea seedlings, infested with an aphid population of mixed ages, were placed directly in the test solutions. 6 days after introduction, samples were checked for mortality and special effects on the plant.

[9] = tested on: Tetranychus urticae (two-spotted spider mite); assay: Example B10: Tetranychus urticae, bean leaf disc spray test; settings: foliar, 192 h
Procedure: Example B10: Activity Against Tetranychus urticae (Two-Spotted Spider Mite)
as §2, with “Bean” for “Soybean”, “leaf discs” for “leaf”, “10′000” for “10,000”, “a mite population of mixed ages.” for “N-2 nymphs.”, “on mixed population (mobile stages) 8” for “5”

[10] = tested on: Myzus persicae (green peach aphid); assay: Example B6: Myzus persicae feeding activity sachet test, mixed population; settings: 120 h, sucrose solution, 5 days after infestation
Description: Example B6: Activity Against Myzus persicae (Green Peach Aphid)
(Feeding Activity Sachet Test), Mixed Population
Test compounds were applied by pipette into 24 well plates and mixed with Sucrose solution. The plates were closed with a stretched Parafilm. A plastic stencil with 24 holes is placed onto the plate and infested pea seedlings were placed directly on the Parafilm. The infested plate is closed with a gel blotting paper and another plastic stencil and then turned upside down. 5 days after infestation the samples were checked on mortality. Application rate: 12.5 ppm.

Compound	mortality at 400 ppm [1] [%]	mortality at 400 ppm [2] [%]	percent control (mortality, anti-feedancy or growth inhibition) at 400 ppm [3] [%]	mortality at 400 ppm [4] [%]	mortality at 400 ppm [5] [%]	mortality at 400 ppm [6] [%]	percent control (mortality, anti-feedancy or growth inhibition) at 12.5 ppm [7] [%]	mortality at 24 ppm [8] [%]	mortality at 400 ppm [9] [%]	mortality at 12.5 ppm [10] [%]
CCS(=O)(=O)c1cc(C(F)(F)F)cnc1-c1ncc(-c2ccc(C(F)(F)F)nc2)n1C [Compound P4]	> 80	> 80	≥ 80	> 80	> 80	> 80	≥ 80	≥ 80	–	–
CCS(=O)(=O)c1cc(C(F)(F)F)cnc1-c1ncc(-c2ccnc(C(F)(F)F)c2)n1C [Compound P6]	> 80	> 80	≥ 80	> 80	–	> 80	–	–	–	–
CCS(=O)(=O)c1cc(C(F)(F)F)cnc1-c1ncc(-c2cc(C(F)(F)F)ccn2)n1C [Compound P3]	–	> 80	≥ 80	–	–	> 80	≥ 80	–	≥ 80	–
CCS(=O)(=O)c1cc(C(F)(F)F)cnc1-c1ncc(-c2ccnc(F)c2)n1C [Compound P39]	> 80	> 80	≥ 80	–	–	–	–	≥ 80	–	≥ 80
CCS(=O)(=O)c1cc(C(F)(F)F)cnc1-c1ncc(-c2ccc(S(=O)(=O)C(F)(F)F)cc2)n1C [Compound P12]	> 80	> 80	≥ 80	–	–	–	≥ 80	–	–	–
CCS(=O)(=O)c1cc(C(F)(F)F)ccc1-c1ncc(-c2ccc(C(F)(F)F)nc2)n1C [Compound P10]	> 80	> 80	≥ 80	> 80	–	> 80	≥ 80	–	–	–
CCS(=O)(=O)c1cc(C(F)(F)F)cnc1-c1ncc(-c2cnc(C(F)(F)F)nc2)n1C [Compound P50]	> 80	> 80	≥ 80	–	–	–	–	≥ 80	–	≥ 80
CCS(=O)(=O)c1cc(C(F)(F)F)cnc1-c1ncc(-c2ccc(SC(F)(F)F)cc2)n1C [Compound P15]	> 80	> 80	≥ 80	> 80	> 80	> 80	≥ 80	–	–	–
CCS(=O)(=O)c1cc(C(F)(F)F)ccc1-c1ncc(-c2ccc(C(F)(F)F)cc2)n1C [Compound P9]	> 80	> 80	≥ 80	> 80	–	> 80	≥ 80	–	–	–
CCS(=O)(=O)c1cc(C(F)(F)F)cnc1-c1ncc(-c2ccc(F)nc2)n1C [Compound P54]	> 80	> 80	≥ 80	–	–	–	–	≥ 80	–	≥ 80
